What was measured:
mutant calreticulin [1] = assay: Western blot analysis of Ba/F3-MPL cell lines; assay type: cell-based, mouse; conditions: 20 uM, 24 hours, heterozygous and homozygous mutant cell lines
Protocol: (§1) 2 million Ba/F3-MPL CALR WT or mutant cells were treated with hematoxylin or the equivalent volume of DMSO in a total volume of 15 ml of RPMI media in T75 flasks (Thermal Fisher Scientific). Cells were collected and washed with PBS before being lysed in whole cell lysis buffer containing 20 mM HEPES, 20% glycerol, 50 mM KCl, 400 mM NaCl, 1 mM EDTA, 1 mM DTT, 5 mM Na orthovanadate, 0.5% NP40, 0.1% Tween 20, supplemented with cOmplete™, Mini, EDTA-free Protease Inhibitor Cocktail (Sigma) and PhosSTOP™ (Sigma). Samples were rotated at 4° C. for 20 min prior to centrifugation at […] for 20 min. The soluble fraction of the sample was collected. Protein concentration was quantified by the Bio-Rad Protein Assay (Bio-Rad) according to the manufacturer's instructions and measured by a SpectraMax Microplate Reader (Molecular Devices). Equal amounts of protein were loaded for 8% or 10% SDS-polyacrylamide gel electrophoresis prior to transfer to Amersham™ Protran® nitrocellulose membranes at 35V, 4° C. overnight. Membranes were then blocked by 5% bovine serum albumin fraction V (Sigma) or milk. Mutant calreticulin was detected by a polyclonal rabbit antibody against the mutant specific C-terminal peptide (Myelopro). The other primary antibodies used were as follows: Calregulin Antibody (F-4)(sc-373863 Santa Cruz), Anti-HSC70(B-6) (J2212, Santa Cruz), Anti-Stat5 (N20)(L1112, Santa Cruz), anti-pYSTAT5 (Tyr694)(71-6900, Life Technologies), anti-TPOR/cMpl (#6944, Millipore), Cleaved PARP (Asp214) (#9548, Cell Signaling). HRP-linked anti-mouse and anti-rabbit antibodies (NA931/4, GE Healthcare Life Sciences) were used as secondary antibodies. Clarity™ Western ECL Blotting Substrates (Biorad) were used for the chemiluminescence detection method.
(§2) To confirm that the cytotoxic selectivity of hematoxylin in CALR mutant cell lines is due to a specific effect on mutant calreticulin, Ba/F3-MPL CALR WT and mutant cell lines were treated with the compound for 24 hours. […]

mutant calreticulin [2] = target: T1, mutant calreticulin (Mus musculus, UniProt P14211); assay: Western blot analysis of Ba/F3-MPL cell lines; assay type: cell-based; conditions: time-course
T1 construct: endogenous in cells; host or cells: Ba/F3-MPL CALR WT/del79 (heterozygous) and CALR del37/del37 (homozygous) cell lines and their hematoxylin-resistant clones
T1 sequence (P14211 with tags, fused parts or gaps, stated change not applied): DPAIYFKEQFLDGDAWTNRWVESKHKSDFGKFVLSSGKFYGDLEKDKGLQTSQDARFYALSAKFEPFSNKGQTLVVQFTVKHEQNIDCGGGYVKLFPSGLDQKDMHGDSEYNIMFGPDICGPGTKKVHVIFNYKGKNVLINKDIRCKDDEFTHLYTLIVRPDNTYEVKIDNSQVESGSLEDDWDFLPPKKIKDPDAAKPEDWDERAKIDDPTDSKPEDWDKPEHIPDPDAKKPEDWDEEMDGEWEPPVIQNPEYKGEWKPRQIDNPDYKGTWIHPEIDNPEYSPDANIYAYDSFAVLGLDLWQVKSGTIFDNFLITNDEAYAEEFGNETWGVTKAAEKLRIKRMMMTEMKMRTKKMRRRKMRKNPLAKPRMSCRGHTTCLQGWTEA
Protocol: as §1, §2

CALR wild-type cell line = assay: 72 h dose response of hematoxylin, analogues and control compounds; assay type: cell-based; conditions: 72 h assay; read-out: IC50 in wild-type cell line
Protocol: Ba/F3 and UT-7-TPO were plated 5.000 cells/well and 16.000 cells/well into 96-well plates with the desirable concentrations of compounds or cytokines added to a total volume of 100 ul. 72 hours later, the CellTiter-Glo luminescent Cell Viability Assay (Promega) was used to determine the cell viability. The luminescent signal was detected by a VICTOR Multilabel Plate Reader (PerkinElmer). Dose response data was analyzed by Graphpad Prism 7.0.
To further explore the chemical space of the compound, a few hematoxylin analogues were also tested (FIGS. 15 to 17). […] The compounds Protosappanin B (A-4) and RJ002 (B-2) were also tested. […] As a comparison, the clinically used chemotherapeutic drugs hydroxyurea and ruxolitinib were also tested in the cell models.

[3] = tested on: CD34+ cells from CALR mutated patients; assay: colony formation assay; assay type: cell-based, human; conditions: 40 uM hematoxylin vs DMSO
Text: CD34-positive cells from healthy controls and CALR mutant patients were isolated by EasySep™ Human CD34 Positive Selection Kit (#18056; [sequence] Technologies) according to the manufacturer's instructions. StemSpan™ SFEM II (#09655 or #17856; [sequence] Technologies) supplemented with 1× StemSpan™ CD34+ Expansion Supplement (#02691; [sequence] Technologies) was used to culture and expand the isolated CD34-positive cells, preferably for no more than 8 days before experiments or storage. 1000 human CD34-positive cells were plated in 1 ml of Methocult classic medium ([sequence] Technologies, #H4434) with 40 uM hematoxylin or DMSO control. Cells were incubated for 14 days before colony counting. Statistical test was calculated using two-way ANOVA with Sidak's multiple comparisons test.

mutant calreticulin [4] = target: T2, mutant calreticulin (Homo sapiens, UniProt P27797); assay: Western blot analysis of CD34-positive cells from a CALR ins5 mutant patient; assay type: cell-based; set-up: dose or concentration left out as unconfirmed; conditions: hematoxylin, 8 hours
T2 construct: CD34-positive cells isolated from a healthy control and a CALR ins5 mutant patient; endogenous in cells; host or cells: primary CD34-positive cells from a CALR ins5 mutant patient
T2 sequence (P27797 with tags, fused parts or gaps, stated change not applied): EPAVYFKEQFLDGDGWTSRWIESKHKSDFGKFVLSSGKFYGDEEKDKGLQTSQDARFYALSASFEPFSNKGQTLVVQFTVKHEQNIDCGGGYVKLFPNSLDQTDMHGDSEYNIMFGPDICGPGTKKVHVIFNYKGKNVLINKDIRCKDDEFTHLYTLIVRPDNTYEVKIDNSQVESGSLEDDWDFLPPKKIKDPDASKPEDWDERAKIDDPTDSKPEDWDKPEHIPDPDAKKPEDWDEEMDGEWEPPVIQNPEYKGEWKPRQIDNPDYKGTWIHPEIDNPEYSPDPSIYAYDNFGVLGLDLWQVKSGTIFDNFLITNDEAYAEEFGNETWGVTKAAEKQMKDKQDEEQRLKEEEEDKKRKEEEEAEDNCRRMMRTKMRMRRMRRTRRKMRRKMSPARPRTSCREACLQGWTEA
Protocol: as §1, with “The other primary antibodies used were as follows: Calregulin Antibody (F-4)(sc-373863 Santa Cruz), Anti-HSC70(B-6) (J2212, Santa Cruz), Anti-Stat5 (N20)(L1112, Santa Cruz), anti-pYSTAT5 (Tyr694)(71-6900, Life Technologies), anti-TPOR/cMpl (#6944, Millipore), Cleaved PARP (Asp214) (#9548, Cell Signaling). HRP-linked anti-mouse and anti-rabbit antibodies (NA931/4, GE Healthcare Life Sciences) were used as secondary antibodies. Clarity™ Western ECL Blotting Substrates (Biorad) were used for the chemiluminescence detection method.” left out

[5] = tested on: CALR KO Ba/F3-MPL cell lines; assay: hematoxylin sensitivity of CALR knockout cell lines; assay type: cell-based, mouse; conditions: CALR KO vs CALR WT clones
Protocol: In order to further confirm the selective cytotoxicity of hematoxylin in CALR mutant cells, two-color competition assays were performed in both Ba/F3 and UT-7-TPO cells to assess the long-term efficacy of the compound (FIG. 9). […] The differential killing effect of hematoxylin could also be reproduced in the UT-7-TPO cell line. […] This reading frame encounters a stop codon shortly after the mutation and causes a truncation at the CALR C-terminus (FIG. 12). […] Moreover, CALR KO Ba/F3-MPL cell lines were tested for hematoxylin sensitivity.

[6] = tested on: Ba/F3-MPL CALR del52/WT cells mixed with Ba/F3-MPL CALR WT cells; assay: two-color competition assay, 12 days; assay type: cell-based, mouse; conditions: in the presence of TPO, compared to DMSO control
Protocol: FIG. 10: Competition assay of hematoxylin treatment in Ba/F3-MPL cells. Ba/F3-MPL CALR WT (GFP negative) and Ba/F3-MPL CALR del52/WT (GFP positive) cells were mixed and underwent hematoxylin treatment for 12 days. Drug and cytokine were refreshed every 3 days. Percentage of GFP positive cells were recorded by FACs.
To determine long-term viability, a two-color competition assay was used. Cell lines were transduced with pMSCV-IRES-GFP/mCherry construct, and the fluorescence-positive cells were sorted by a SH800Z Cell Sorter (Sony). GFP/mCherry-positive cell lines were mixed with their non-fluorescent control cells in a 1:1 ratio and underwent compound treatment for 3-12 days. Compounds and cytokines were refreshed every 3 days. Cell samples were analyzed at each time point by a BD LSRFortessa™ cell analyzer (BD Biosciences).

For `Oc1cc2c(cc1O)[C@@H]1c3ccc(O)c(O)c3OC[C@]1(O)C2` [hematoxylin, Hematoxylin], the “mutant calreticulin protein level” value (mutant calreticulin [1]) was “striking down-regulation”, the “mutant calreticulin and MPL protein level” value (mutant calreticulin [2]; 8-hour time point) was “more drastic reduction” and the “time to start of decrease of mutant calreticulin and MPL” value (mutant calreticulin [2]; Ba/F3-MPL CALR WT/del79) was 4 h. For the same compound, the IC50 (CALR wild-type cell line) was 11.1 µM, the “number of colony forming units” value [3] was “significantly reduced” and the “protein abundance of mutant calreticulin” value (mutant calreticulin [4]) was “drastically reduced”. The “hypersensitivity towards the treatment” value [5] was “did not show hypersensitivity” and the “depletion of CALR mutant cells in co-cultivation with CALR WT cells” value [6] was “almost completely depleted”.

— patent publication US12410185B2, “Compounds targeting mutant calreticulin” (MYELOPRO DIAGNOSTICS AND RESEARCH GmbH, priority 2018, dated 2025)
